From patent US8053418B2, “Anti-penicillin resistant pneumococci agent and novel 16-membered macrolide derivative” (Microbial Chemistry Research Foundation, priority 2005, dated 2011) come the findings set out here.

≈ marks a conversion by molar mass, not a printed value. Like-named read-outs stand apart in the source and are kept apart here.

Holding throughout (format): cell-based
Experiment [1] concerns Streptococcus pneumoniae IMC B-0919 (PRSP). The experiment is described as follows: Antimicrobial activity test (MIC), clinical isolate IMC B-0919. The procedure: (§1) Using Streptococcus pneumoniae that include clinical isolates of PRSP, the antimicrobial activity of each of the prepared anti-PRSP agents was measured in accordance with the “determination method of minimum inhibitory concentration of drug against bacteria” of Japanese Society of Chemotherapy (for re-revised version, see Chemotherapy 29; 76, 1981).
(§2) 11 test strains of Streptococcus pneumoniae including IMC B-0919 are all clinical isolates, of which 2 strains, IMC B-0921 and IMC B-1229, are classified into penicillin susceptible Streptococcus pneumoniae (PSSP) and the remaining 9 strains are classified into penicillin-resistant Streptococcus pneumoniae (PRSP) (according to NCCLS standards).

The test system of experiment [2] is Streptococcus pneumoniae IMC B-0920 (PRSP). The experiment is described as follows: Antimicrobial activity test (MIC), clinical isolate IMC B-0920. The procedure:
as §1, §2

Experiment [3] concerns Streptococcus pneumoniae IMC B-0922 (PRSP). The experiment is described as follows: Antimicrobial activity test (MIC), clinical isolate IMC B-0922. The procedure: as §1, §2
The subject of experiment [4] is Streptococcus pneumoniae IMC B-1231 (PRSP). The experiment is described as follows: Antimicrobial activity test (MIC), clinical isolate IMC B-1231. The procedure:
as §1, §2

The subject of experiment [5] is Streptococcus pneumoniae IMC B-1232 (PRSP). The experiment is described as follows: Antimicrobial activity test (MIC), clinical isolate IMC B-1232. The procedure:
as §1, §2

Experiment [6] deals with Streptococcus pneumoniae IMC B-1233 (PRSP). The experiment is described as follows: Antimicrobial activity test (MIC), clinical isolate IMC B-1233. The procedure:
as §1, §2

The subject of experiment [7] is Streptococcus pneumoniae IMC B-1234 (PRSP). The experiment is described as follows: Antimicrobial activity test (MIC), clinical isolate IMC B-1234. As to the method: as §1, §2
Experiment [8] concerns Streptococcus pneumoniae IMC B-1235 (PRSP). The experiment is described as follows: Antimicrobial activity test (MIC), clinical isolate IMC B-1235. As to the method: as §1, §2
Experiment [9] concerns Streptococcus pneumoniae IMC B-1236 (PRSP). The experiment is described as follows: Antimicrobial activity test (MIC), clinical isolate IMC B-1236. As to the method:
as §1, §2

Experiment [10] deals with Streptococcus pneumoniae IMC B-0921 (PSSP). The experiment is described as follows: Antimicrobial activity test (MIC), clinical isolate IMC B-0921. As to the method:
as §1, §2

Experiment [11] deals with Streptococcus pneumoniae IMC B-1229 (PSSP). The experiment is described as follows: Antimicrobial activity test (MIC), clinical isolate IMC B-1229. As to the method:
as §1, §2

Experiment [12] concerns penicillin-resistant Streptococcus pneumoniae (PRSP). The experiment is described as follows: Anti-PRSP activity, overall statements on the clinical isolates. Particulars: statement in words. As to the method:
as §1, §2
For the compounds of the present invention, MKT-1011, MKT-2003, MKT-3002 and MKT-3003, the antimicrobial activity was measured in the same way as in Experimental Example 1.

Where [13] appears, read: PRSP clinical isolate IMC B-0919.
Where [14] appears, read: PRSP clinical isolate IMC B-0920.
Where [15] appears, read: PRSP clinical isolate IMC B-0922.
The mark [16] stands for this setting: PRSP clinical isolate IMC B-1231.
The mark [17] stands for this setting: PRSP clinical isolate IMC B-1232.
Where [18] appears, read: PRSP clinical isolate IMC B-1233.
The mark [19] stands for this setting: PRSP clinical isolate IMC B-1234.
[20] abbreviates: PRSP clinical isolate IMC B-1235.
[21] abbreviates: PRSP clinical isolate IMC B-1236.
The mark [22] stands for this setting: PSSP clinical isolate IMC B-0921.
Where [23] appears, read: PSSP clinical isolate IMC B-1229.
[24] abbreviates: Streptococcus pneumoniae IMC B-0919, PRSP, read-out: MIC.
Where [25] appears, read: Streptococcus pneumoniae IMC B-0920, PRSP, read-out: MIC.
The mark [26] stands for this setting: Streptococcus pneumoniae IMC B-0922, PRSP, read-out: MIC.
Setting [27] is: Streptococcus pneumoniae IMC B-1231, PRSP, read-out: MIC.
The mark [28] stands for this setting: Streptococcus pneumoniae IMC B-1232, PRSP, read-out: MIC.
Where [29] appears, read: Streptococcus pneumoniae IMC B-1233, PRSP, read-out: MIC.
The mark [30] stands for this setting: Streptococcus pneumoniae IMC B-1234, PRSP, read-out: MIC.
[31] abbreviates: Streptococcus pneumoniae IMC B-1235, PRSP, read-out: MIC.
Setting [32] is: Streptococcus pneumoniae IMC B-1236, PRSP, read-out: MIC.
Where [33] appears, read: Streptococcus pneumoniae IMC B-0921, PSSP, read-out: MIC.
Setting [34] is: Streptococcus pneumoniae IMC B-1229, PSSP, read-out: MIC.

The MIC is the smallest concentration in the dilution series that meets the test's criterion for growth inhibition.

Consider `C=CCOCC1C=C(C)C=CC(=O)C(C)CC(CC=O)C(OC2OC(C)CC(N(C)C)C2O)C(C)CCC(=O)OC1CC` (centres unmarked) [MKT-3701], for which the MIC was found to be 0.1 µg/mL (≈ 0.165 µM) in experiment [1] (setting [13]); 0.2 µg/mL (≈ 0.33 µM) in experiment [2] (setting [14]); 0.1 µg/mL (≈ 0.165 µM) in experiment [3] (setting [15]); 3.13 µg/mL (≈ 5.17 µM) in [4] (setting [16]); 0.05 µg/mL (≈ 0.0825 µM) in experiment [5] (setting [17]); 0.05 µg/mL (≈ 0.0825 µM) in [6] (setting [18]). Also, the MIC in [7] (setting [19]) stood at 0.1 µg/mL (≈ 0.165 µM); in experiment [8] (setting [20]), 12.5 µg/mL (≈ 20.6 µM); in [9] (setting [21]), 12.5 µg/mL (≈ 20.6 µM); in [10] (setting [22]) it was 0.05 µg/mL (≈ 0.0825 µM); in experiment [11] (setting [23]), 0.05 µg/mL (≈ 0.0825 µM). In [12], the anti-PRSP activity result is on record as “high anti-PRSP activity”.

As for `CCC1OC(=O)CCC(C)C(OC2OC(C)CC(N(C)C)C2O)C(CC=O)CC(C)C(=O)C=CC(C)=CC1CN(C)CCc1ccc(OC)c(OC)c1` (centres unmarked) [MKT-6104], the minimal inhibitory concentration (MIC) was determined as 1.56 µg/mL (≈ 2.1 µM) in [1] (setting [13]); 0.78 µg/mL (≈ 1.05 µM) in experiment [2] (setting [14]); 0.78 µg/mL (≈ 1.05 µM) in experiment [3] (setting [15]); 50 µg/mL (≈ 67.3 µM) in experiment [4] (setting [16]); 1.56 µg/mL (≈ 2.1 µM) in experiment [5] (setting [17]); 1.56 µg/mL (≈ 2.1 µM) in [6] (setting [18]). The MIC worked out at 1.56 µg/mL (≈ 2.1 µM) in [7] (setting [19]); 25 µg/mL (≈ 33.6 µM) in experiment [8] (setting [20]); 25 µg/mL (≈ 33.6 µM) in experiment [9] (setting [21]); 0.78 µg/mL (≈ 1.05 µM) in experiment [10] (setting [22]); 1.56 µg/mL (≈ 2.1 µM) in [11] (setting [23]).

As to `CCC1OC(=O)CCC(C)C(OC2OC(C)CC(N(C)C)C2O)C(CC=O)CC(C)C(=O)C=CC(C)=CC1CN1CCC(CCO)CC1` (centres unmarked) [MKT-6113], the minimum inhibitory concentration (MIC) in experiment [1] (Streptococcus pneumoniae IMC B-0919, PRSP) is 0.78 µg/mL (≈ 1.15 µM); in [2] (Streptococcus pneumoniae IMC B-0920, PRSP) it was 1.56 µg/mL (≈ 2.3 µM); in experiment [3] (Streptococcus pneumoniae IMC B-0922, PRSP) it was 1.56 µg/mL (≈ 2.3 µM); in experiment [4] (Streptococcus pneumoniae IMC B-1231, PRSP), over 50 µg/mL; in experiment [5] (Streptococcus pneumoniae IMC B-1232, PRSP), 1.56 µg/mL (≈ 2.3 µM); in experiment [6] (Streptococcus pneumoniae IMC B-1233, PRSP) it was 0.78 µg/mL (≈ 1.15 µM). Moreover, the MIC in experiment [7] (Streptococcus pneumoniae IMC B-1234, PRSP) is 0.39 µg/mL (≈ 0.576 µM); in [8] (Streptococcus pneumoniae IMC B-1235, PRSP), over 50 µg/mL; in experiment [9] (Streptococcus pneumoniae IMC B-1236, PRSP), over 50 µg/mL; in experiment [10] (Streptococcus pneumoniae IMC B-0921, PSSP), 0.20 µg/mL (≈ 0.295 µM); in [11] (Streptococcus pneumoniae IMC B-1229, PSSP), 0.39 µg/mL (≈ 0.576 µM).

For the molecule `CC[C@H]1OC(=O)[C@H](C)[C@@H](O[C@H]2C[C@@](C)(OC)[C@@H](O)[C@H](C)O2)[C@H](C)[C@@H](O[C@@H]2O[C@H](C)C[C@H](N(C)C)[C@H]2O)[C@](C)(OC)C[C@@H](C)C(=O)[C@H](C)[C@@H](O)[C@]1(C)O` [clarithromycin, reference compound], the MIC in experiment [1] (setting [24]) turned out to be 0.2 µg/mL (≈ 0.267 µM); in [2] (setting [25]), 0.2 µg/mL (≈ 0.267 µM); in experiment [3] (setting [26]) it was 0.2 µg/mL (≈ 0.267 µM); in experiment [4] (setting [27]), 25 µg/mL (≈ 33.4 µM); in experiment [5] (setting [28]), 0.39 µg/mL (≈ 0.521 µM); in experiment [6] (setting [29]), 0.05 µg/mL (≈ 0.0668 µM). In addition, the MIC in experiment [7] (setting [30]) is 0.05 µg/mL (≈ 0.0668 µM); in experiment [8] (setting [31]), over 100 µg/mL; in experiment [9] (setting [32]), over 100 µg/mL; in [10] (setting [33]) it was 0.1 µg/mL (≈ 0.134 µM); in experiment [11] (setting [34]), 0.1 µg/mL (≈ 0.134 µM).

On to `CC[C@H]1OC(=O)C[C@@H](O)[C@H](C)[C@@H](O[C@@H]2O[C@H](C)[C@@H](O[C@H]3C[C@@](C)(O)[C@@H](O)[C@H](C)O3)[C@H](N(C)C)[C@H]2O)[C@@H](CC=O)C[C@@H](C)C(=O)/C=C/C(C)=C/[C@@H]1CO[C@@H]1O[C@H](C)[C@@H](O)[C@@H](OC)[C@H]1OC` [tylosin, reference compound], for which the MIC was 0.39 µg/mL (≈ 0.426 µM) in experiment [1] (setting [24]); 0.39 µg/mL (≈ 0.426 µM) in experiment [2] (setting [25]); 0.39 µg/mL (≈ 0.426 µM) in [3] (setting [26]); 100 µg/mL (≈ 109 µM) in experiment [4] (setting [27]); 0.39 µg/mL (≈ 0.426 µM) in experiment [5] (setting [28]); 0.78 µg/mL (≈ 0.851 µM) in experiment [6] (setting [29]). Also, the minimum inhibitory concentration (MIC) was 0.39 µg/mL (≈ 0.426 µM) in [7] (setting [30]); over 100 µg/mL in experiment [8] (setting [31]); over 100 µg/mL in experiment [9] (setting [32]); 0.39 µg/mL (≈ 0.426 µM) in experiment [10] (setting [33]); 0.39 µg/mL (≈ 0.426 µM) in [11] (setting [34]).
